Results as given in US8987314B2, “Amide, urea or sulfone amide linked benzothiazole inhibitors of endothelial lipase” (Bristol-Myers Squibb Company, priority 2012, dated 2015).

Legend:
Endothelial lipase (EL) = Endothelial lipase (EL) (Homo sapiens (Human), UniProt Q9Y5X9); test: EL assay: endothelial lipase activity with fluorescent substrate A10070 in DMPG vesicles; assay type: biochemical
Summary of the method: (§1)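 EL from conditioned medium of HT-1080 cells engineered to overexpress endogenous EL; HL partially purified from conditioned medium of HL-overexpressing COS cells. Enzyme preincubated with compound 30 min at 37° C in 50 mM HEPES pH 8.0, 50 mM NaCl, 1 mM CaCl2; DMPG vesicles carrying FRET substrate (0.11 mole fraction) then added.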

hepatic lipase (HL) = hepatic lipase (HL) (Homo sapiens (Human), UniProt P11150); test: HL assay: hepatic lipase activity with fluorescent substrate A10070 in DMPG vesicles; assay type: biochemical
Chain of hepatic lipase (HL) (P11150 23-499, species assumed): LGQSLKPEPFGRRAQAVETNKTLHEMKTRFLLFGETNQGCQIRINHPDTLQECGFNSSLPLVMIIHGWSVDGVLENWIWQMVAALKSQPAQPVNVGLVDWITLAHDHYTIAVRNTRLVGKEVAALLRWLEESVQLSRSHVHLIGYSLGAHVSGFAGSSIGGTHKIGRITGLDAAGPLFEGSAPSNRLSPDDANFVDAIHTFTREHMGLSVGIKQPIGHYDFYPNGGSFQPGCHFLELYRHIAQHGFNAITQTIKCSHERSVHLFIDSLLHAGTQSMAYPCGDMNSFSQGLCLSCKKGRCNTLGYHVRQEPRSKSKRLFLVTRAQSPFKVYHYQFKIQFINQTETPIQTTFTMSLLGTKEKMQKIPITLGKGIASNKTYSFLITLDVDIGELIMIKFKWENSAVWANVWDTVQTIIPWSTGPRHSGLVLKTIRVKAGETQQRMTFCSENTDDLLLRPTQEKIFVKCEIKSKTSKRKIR
Summary of the method: as §1

Chain of Endothelial lipase (EL) (Q9Y5X9 21-500): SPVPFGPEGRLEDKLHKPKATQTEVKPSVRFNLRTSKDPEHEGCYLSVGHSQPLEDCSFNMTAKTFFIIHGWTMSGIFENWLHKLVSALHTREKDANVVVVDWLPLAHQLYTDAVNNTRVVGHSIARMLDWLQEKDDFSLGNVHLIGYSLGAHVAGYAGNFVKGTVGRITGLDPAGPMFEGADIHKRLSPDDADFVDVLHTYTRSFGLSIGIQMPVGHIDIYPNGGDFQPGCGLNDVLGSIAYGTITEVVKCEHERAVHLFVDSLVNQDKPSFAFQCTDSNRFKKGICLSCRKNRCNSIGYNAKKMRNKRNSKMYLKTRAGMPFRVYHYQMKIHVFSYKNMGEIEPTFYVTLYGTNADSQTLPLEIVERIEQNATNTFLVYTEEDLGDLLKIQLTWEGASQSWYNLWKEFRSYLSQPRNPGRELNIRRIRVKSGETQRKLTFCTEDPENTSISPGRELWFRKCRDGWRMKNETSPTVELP

Row | IC50 (Endothelial lipase (EL)) [µM] | IC50 (hepatic lipase (HL)) [µM] | SMILES
1 | 0.0121 | 0.115 | COCCN(C)C(=O)c1ccc(-c2ccc3nc(C(C(=O)NCCS(N)(=O)=O)S(=O)(=O)CCC(F)(F)F)sc3c2)cc1 (centres unmarked) [Example B290, N-(2-methoxyethyl)-N-methyl-4-(2-{[(2-sulfa-moylethyl)carbamoyl](3,3,3-trifluoropropane-sulfonyl)methyl}-1,3-benzothiazol-6-yl)ben-zamide]
2 | 0.0007 | 0.0352 | COCCN(C)C(=O)c1ccc(-c2ccc3nc(C(C(=O)NCCS(N)(=O)=O)S(=O)(=O)CC4CC4)sc3c2)cc1 (centres unmarked) [Example B291, 4-(2-{cyclopropylmethane-sulfonyl[(2-sulfamoyl-ethyl)carbamoyl]methyl}-1,3-benzothiazol-6-yl)-N-(2-methoxyethyl)-N-methylbenzamide]
3 | 0.0202 | 0.112 | COCCNC(=O)c1ccc(-c2ccc3nc(C(C(=O)NCCS(N)(=O)=O)S(=O)(=O)Cc4ccc(Cl)c(Cl)c4)sc3c2)cc1 (centres unmarked) [Example B292, 4-{2-[(3,4-dichlorophen-yl)methanesulfonyl[(2-sulfa-moylethyl)carbamoyl]meth-yl]-1,3-benzothiazol-6-yl}-N-(2-methoxyethyl)ben-zamide]
4 | 0.0078 | 0.113 | COC1CN(C(=O)c2ccc(-c3ccc4nc(C(C(=O)NCCS(N)(=O)=O)S(=O)(=O)CCC(F)(F)F)sc4c3)cc2)C1 (centres unmarked) [Example B301, 2-{6-[4-(3-methoxy-azetidine-1-carbonyl)phen-yl]-1,3-benzothiazol-2-yl}-N-(2-sulfamoyl-ethyl)-2-(3,3,3-trifluoro-propanesulfonyl)acetamide]
5 | 0.0007 | 0.0166 | CO[C@H]1CCN(C(=O)c2ccc(-c3ccc4nc(C(C(=O)NCCS(N)(=O)=O)S(=O)(=O)CCC(F)(F)F)sc4c3)cc2)C1 (stereo partly drawn) [Example B304, 2-(6-{4-[(3S)-3-methoxy-pyrrolidine-1-carbonyl]phen-yl}-1,3-benzothiazol-2-yl)-N-(2-sulfamoyl-ethyl)-2-(3,3,3-trifluoro-propanesulfonyl)acetamide]
6 | 0.003 | 0.001 | CS(=O)(=O)C(C(=O)NCCS(N)(=O)=O)c1nc2ccc(-c3ccccc3F)cc2s1 (centres unmarked) [Example B305, 2-[6-(2-fluorophenyl)-1,3-benzothiazol-2-yl]-2-methanesulfonyl-N-(2-sulfamoylethyl)acetamide]
7 | 0.0038 | 0.149 | COCCS(=O)(=O)C(C(=O)NCCS(N)(=O)=O)c1nc2ccc(-c3ccc(C(=O)N4CC[C@H](OC)C4)cc3)cc2s1 (stereo partly drawn) [Example B306, 2-(2-methoxyethane-sulfonyl)-2-(6-{4-[(3S)-3-methoxypyrrolidine-1-carbonyl]phenyl}-1,3-benzothiazol-2-yl)-N-(2-sulfamoylethyl)acetamide]
8 | 0.0013 | 0.194 | COCCS(=O)(=O)C(C(=O)NCCS(N)(=O)=O)c1nc2cc(-c3ccc(F)nc3)ccc2s1 (centres unmarked) [Example B308, 2-[5-(6-fluoropyridin-3-yl)-1,3-benzothiazol-2-yl]-2-(2-methoxyethane-sulfonyl)-N-(2-sulfamoylethyl)acetamide]
9 | 0.0005 | 0.067 | NS(=O)(=O)CCNC(=O)C(c1nc2cc(-c3ccc(F)nc3)ccc2s1)S(=O)(=O)Cc1ccc(OC(F)(F)F)cc1 (centres unmarked) [Example B309, 2-[5-(6-fluoropyridin-3-yl)-1,3-benzothiazol-2-yl]-N-(2-sulfamoylethyl)-2-{[4-(trifluoromethoxy)phen-yl]methanesulfonyl}a-cetamide]
10 | 0.001 | 0.0514 | NS(=O)(=O)CCNC(=O)C(c1nc2cc(-c3ccc(F)nc3)ccc2s1)S(=O)(=O)Cc1ccc(F)cc1 (centres unmarked) [Example B310, 2-[(4-fluorophenyl)meth-anesulfonyl]-2-[5-(6-fluoropyridin-3-yl)-1,3-benzothiazol-2-yl]-N-(2-sulfamoylethyl)acetamide]
11 | 0.0031 | 0.0242 | NS(=O)(=O)CCNC(=O)C(c1nc2cc(-c3ccc(F)nc3)ccc2s1)S(=O)(=O)CCC(F)(F)F (centres unmarked) [Example B311, 2-[5-(6-fluoropyridin-3-yl)-1,3-benzothiazol-2-yl]-N-(2-sulfamoylethyl)-2-(3,3,3-trifluoropropane-sulfonyl)acetamide]

Further lines, the compound ahead of its results:

Row | SMILES | IC50 (Endothelial lipase (EL)) [µM] | IC50 (hepatic lipase (HL)) [µM]
12 | NS(=O)(=O)CCNC(=O)C(c1nc2ccc(-c3ccc(C(=O)N4CCOCC4)cc3)cc2s1)S(=O)(=O)Cc1ccc(C(F)(F)F)cc1 (centres unmarked) [Example B293, 2-{6-[4-(morpholine-4-carbonyl)phenyl]-1,3-benzothiazol-2-yl}-N-(2-sulfamoylethyl)-2-{[4-(trifluoromethyl)phen-yl]methanesulfonyl}a-cetamide] | 0.146 | 0.329
13 | COCCNC(=O)c1ccc(-c2ccc3nc(C(C(=O)NCCS(N)(=O)=O)S(=O)(=O)Cc4cc(Cl)cc(Cl)c4)sc3c2)cc1 (centres unmarked) [Example B295, 4-{2-[(3,5-dichlorophen-yl)methanesulfonyl[(2-sulfa-moylethyl)carbamoyl]meth-yl]-1,3-benzothiazol-6-yl}-N-(2-methoxyethyl)ben-zamide] | 0.0209 | 0.14
14 | NS(=O)(=O)CCNC(=O)C(c1nc2ccc(-c3ccc(C(=O)N4CCOCC4)cc3)cc2s1)S(=O)(=O)Cc1ccc(F)cc1 (centres unmarked) [Example B296, 2-[(4-fluorophenyl)methanesulfonyl]-2-{6-[4-(morpholine-4-carbon-yl)phenyl]-1,3-benzothiazol-2-yl}-N-(2-sulfamoyleth-yl)acetamide] | 0.0029 | 0.267
15 | NS(=O)(=O)CCNC(=O)C(c1nc2ccc(-c3ccc(C(=O)N4CCOCC4)cc3)cc2s1)S(=O)(=O)Cc1ccc(Cl)c(Cl)c1 (centres unmarked) [Example B297, 2-[(3,4-dichlorophen-yl)methanesulfonyl]-2-{6-[4-(morpholine-4-carbon-yl)phenyl]-1,3-benzothiazol-2-yl}-N-(2-sulfamoylethyl)a-cetamide] | 0.0053 | 0.556
16 | COC1CN(C(=O)c2ccc(-c3ccc4nc(C(C(=O)NCCS(N)(=O)=O)S(=O)(=O)Cc5ccc(C(F)(F)F)cc5)sc4c3)cc2)C1 (centres unmarked) [Example B299] | 0.0056 | 0.0742
17 | COC1CN(C(=O)c2ccc(-c3ccc4nc(C(C(=O)NCCS(N)(=O)=O)S(=O)(=O)Cc5ccc(OC(F)(F)F)cc5)sc4c3)cc2)C1 (centres unmarked) [Example B300, 2-{6-[4-(3-methoxy-azetidine-1-carbonyl)phen-yl]-1,3-benzothiazol-2-yl}-N-(2-sulfamoyl-ethyl)-2-{[4-(trifluoro-methoxy)phenyl]methane-sulfonyl}acetamide] | 0.0055 | 0.0851
18 | COC1CN(C(=O)c2ccc(-c3ccc4nc(C(C(=O)NCCS(N)(=O)=O)S(=O)(=O)Cc5ccc(F)cc5)sc4c3)cc2)C1 (centres unmarked) [Example B302, 2-[(4-fluorophen-yl)methanesulfonyl]-2-{6-[4-(3-methoxyazetidine-1-carbonyl)phenyl]-1,3-benzothiazol-2-yl}-N-(2-sulfamoylethyl)acetamide] | 0.0072 | 0.052
19 | NS(=O)(=O)CCNC(=O)C(c1nc2ccc(-c3ccc4c(c3)CNC4=O)cc2s1)S(=O)(=O)Cc1ccc(OC(F)(F)F)cc1 (centres unmarked) [Example B303, 2-[6-(1-oxo-2,3-dihydro-1H-isoindol-5-yl)-1,3-benzothiazol-2-yl]-N-(2-sulfamoylethyl)-2-{[4-(trifluoromethoxy)phen-yl]methanesulfonyl)a-cetamide] | 0.0025 | 0.0512
